Where two headings read alike, the source gives them in different places.
Tests used:
Assay type in all cases: cell-based
[1] = tested on: AKT S473 phosphorylation (mTORC2); assay: AlphaLISA/MSD analysis of AKT phosphorylation in MDA-MB-468 cells
Protocol: (§1) Cell culture and reagents. Cells were obtained from ATCC, grown in appropriate medium supplemented with 10% fetal bovine serum and 1% penicillin/streptomycin and maintained at 37 °C in a humidified incubator at 5% CO 2.
(§2) AlphaLISA and MesoScale Discovery (MSD) analysis of 4EBP1, S6K and AKT phosphorylation. mTOR substrate phosphorylation in MDA-MB-468 cells was assayed using AlphaLISA SureFire Ultra kits for p4EBP1 Thr37/46, p-P70S6K Thr389 and p-AKT1/2/3 Ser473 (PerkinElmer), and MSD Multi-Array Assay Systems for Phospho-4EBP1 (Thr37/46) and Phospho-AKT (Ser473) (MSD). Cells were seeded at 25,000 cells per well and exposed the next day to serial three-fold dilutions of compounds in complete medium with 0.1% dimethylsulfoxide (DMSO). After indicated incubation times, cells were lysed and AlphaLISA or MSD performed according to the manufacturers’ protocols. Samples were read using an EnVision Multilabel Plate Reader (PerkinElmer) using standard AlphaLISA settings or using an MSD plate reader. Data were plotted as a function of logM [compound] with a sigmoidal concentration response (variable slope) model fitted to the data to estimate the inhibitor half-maximum effective concentration (EC 50) in Prism 7 (GraphPad). Alternatively, results were analyzed as percentage of control in which 0% was set as signal from 1 μM Torin1 and 100% was set as the mean of DMSO wells on each plate, and inhibitor EC 50 was estimated as described

[2] = tested on: 4EBP1 T37/T46 phosphorylation (mTORC1); assay: AlphaLISA/MSD analysis of 4EBP1 phosphorylation in MDA-MB-468 cells; details: for IC50: read-out: p4EBP1 IC50
Protocol: as §1, §2

[3] = tested on: p-P70S6K Thr389; assay: AlphaLISA/MSD analysis of S6K phosphorylation in MDA-MB-468 cells; details: MDA-MB-468 cells, read-out: pS6K IC50
Protocol: as §1, §2

[4] = Homo sapiens, MDA-MB-468 cells, read-out: pAKT IC50
[5] = up to a maximal test concentration of 1 μM

For `CO[C@@H](C[C@@H]1CC[C@@H](C)[C@](O)(C(=O)C(=O)N2CCCC[C@H]2C(=O)O)O1)/C(C)=C/C=C/C=C/[C@@H](C)C[C@@H](C)C(=O)[C@H](OC)[C@H](O)/C(C)=C/[C@@H](C)C(=O)/C=C\[C@H](C)C[C@@H]1CC[C@@H](OCCCCc2cn(CCOCCOCCOCCOCCOCCOCCOCCOCCC(=O)NCCCCn3nc(-c4ccc5oc(N)nc5c4)c4c(N)ncnc43)nn2)[C@H](OC)C1` [compound 32], the IC50 [1, 4] was 450 nM, the IC50 ([2]; Homo sapiens, MDA-MB-468 cells) was 180 nM and the IC50 ([3]; Homo sapiens) was 59 nM.
For `CO[C@H]1C[C@@H]2CC[C@@H](C)[C@@](O)(O2)C(=O)C(=O)N2CCCC[C@H]2C(=O)O[C@H]([C@H](C)C[C@@H]2CC[C@@H](OCCOCc3cn(CCOCCOCCOCCOCCOCCOCCOCCOCCC(=O)NCCCCn4nc(-c5cc6cc(O)ccc6[nH]5)c5c(N)ncnc54)nn3)[C@H](OC)C2)CC(=O)[C@H](C)/C=C(\C)[C@@H](O)[C@@H](OC)C(=O)[C@H](C)C[C@H](C)/C=C/C=C/C=C/1C` [compound 17, reference compound], the IC50 [1, 4] was 24 nM, the IC50 ([2]; Homo sapiens, MDA-MB-468 cells) was 2.5 nM and the IC50 ([3]; Homo sapiens) was 0.47 nM.
For BGT226 [compound 7, reference compound], the IC50 ([1]; MDA-MB-468 cells, read-out: pAKT IC50) was 1.4 nM, the IC50 ([2]; MDA-MB-468 cells) was 4.4 nM and the “selectivity (mTORC1/mTORC2 ratio)” value ([2]; pAKT IC50 versus p4EBP1 IC50, MDA-MB-468 cells) was 0.3. The IC50 [3] was 0.27 nM.
For `CO[C@H]1C[C@@H]2CC[C@@H](C)[C@@](O)(O2)C(=O)C(=O)N2CCCC[C@H]2C(=O)O[C@H]([C@H](C)C[C@@H]2CC[C@@H](OCCCCc3cn(CCOCCOCCOCCOCCOCCOCCOCCOCCC(=O)NCCCCn4nc(-c5cc6cc(O)ccc6[nH]5)c5c(N)ncnc54)nn3)[C@H](OC)C2)CC(=O)[C@H](C)/C=C(\C)[C@@H](O)[C@@H](OC)C(=O)[C@H](C)C[C@H](C)/C=C/C=C/C=C/1C` [compound 18], the IC50 [1, 4] was 18 nM, the IC50 ([2]; Homo sapiens, MDA-MB-468 cells) was 1.4 nM and the “selectivity for mTORC1 over mTORC2” value ([2]; pAKT versus p4EBP1 inhibition, MDA-MB-468 cells) was “approximately 13 fold”. For the same compound, the IC50 ([3]; Homo sapiens) was 0.28 nM.
For `CO[C@H]1C[C@@H]2CC[C@@H](C)[C@@](O)(O2)C(=O)C(=O)N2CCCC[C@H]2C(=O)O[C@H]([C@H](C)C[C@@H]2CC[C@@H](OCCCCc3cn(CCOCCOCCOCCOCCOCCOCCOCCOCCC(=O)NCCCCn4nc(-c5ccc6oc(N)nc6c5)c5c(N(C)C)ncnc54)nn3)[C@H](OC)C2)CC(=O)[C@H](C)/C=C(\C)[C@@H](O)[C@@H](OC)C(=O)[C@H](C)C[C@H](C)/C=C/C=C/C=C/1C` [compound 23], the IC50 [1, 4] was greater than 1000 nM, the pAKT inhibition [1, 5] was “inactive” and the IC50 ([2]; Homo sapiens, MDA-MB-468 cells) was greater than 1000 nM. The p4EBP1 inhibition [2, 5] was “inactive” and the IC50 ([3]; Homo sapiens) was 0.29 nM.
`CO[C@H]1C[C@@H]2CC[C@@H](C)[C@@](O)(O2)C(=O)C(=O)N2CCCC[C@H]2C(=O)O[C@H]([C@H](C)C[C@@H]2CC[C@@H](OC(=O)NCCOCCOCCOCCOCCOCCOCCOCCOCCC(=O)N3CCc4cc(Cn5nc(-c6ccc7oc(N)nc7c6)c6c(N)ncnc65)ccc4C3)[C@H](OC)C2)CC(=O)[C@H](C)/C=C(\C)[C@@H](O)[C@@H](OC)C(=O)[C@H](C)C[C@H](C)/C=C/C=C/C=C/1C` [compound 30] gave an IC50 [1, 4] of 4.7 nM, an IC50 ([2]; Homo sapiens, MDA-MB-468 cells) of 0.42 nM and an IC50 ([3]; Homo sapiens) of 0.19 nM.
`CO[C@H]1C[C@@H]2CC[C@@H](C)[C@@](O)(O2)C(=O)C(=O)N2CCCC[C@H]2C(=O)O[C@H]([C@H](C)C[C@@H]2CC[C@@H](OCCCCc3cn(CCOCCOCCOCCOCCOCCOCCOCCOCCC(=O)N4CCC(Cn5nc(-c6ccc7oc(N)nc7c6)c6c(N)ncnc65)CC4)nn3)[C@H](OC)C2)CC(=O)[C@H](C)/C=C(\C)[C@@H](O)[C@@H](OC)C(=O)[C@H](C)C[C@H](C)/C=C/C=C/C=C/1C` [compound 22] showed an IC50 [1, 4] of 1.8 nM, an IC50 ([2]; Homo sapiens, MDA-MB-468 cells) of 0.67 nM and an IC50 ([3]; Homo sapiens) of 0.16 nM.
`CO[C@H]1C[C@@H]2CC[C@@H](C)[C@@](O)(O2)C(=O)C(=O)N2CCCC[C@H]2C(=O)O[C@H]([C@H](C)C[C@@H]2CC[C@@H](OCCCCc3cn(CCOCCOCCOCCOCCOCCOCCOCCOCCC(=O)N4CCc5cc(Cn6nc(-c7ccc8oc(N)nc8c7)c7c(N)ncnc76)ccc5C4)nn3)[C@H](OC)C2)CC(=O)[C@H](C)/C=C(\C)[C@@H](O)[C@@H](OC)C(=O)[C@H](C)C[C@H](C)/C=C/C=C/C=C/1C` [compound 21] gave an IC50 [1, 4] of 8.8 nM, an IC50 ([2]; Homo sapiens, MDA-MB-468 cells) of 0.44 nM and an IC50 ([3]; Homo sapiens) of 0.13 nM.
In the case of `Nc1ncnc2c1c(-c1cnc3[nH]ccc3c1)nn2C1CCCC1` [compound 8, PP121, reference compound], the IC50 ([1]; Homo sapiens, MDA-MB-468, read-out: pAKT IC50) is reported as 100 nM.
